The experiment has as its system SOX2. Put plainly: Screen of a library of FDA-approved drugs for SOX2 antibody staining in A375 cells treated with PLX4720 and AZD6244. The settings on record: for cor. loess / raw / norm: A375 cells, 5 uM test drug with 1 uM PLX4720 and 0.5 uM AZD6244, 24 h; for cor. loess: normalized and geometry-corrected (loess) signal; for raw: raw signal (ratio of FL2 SOX2 antibody and FL3 nuclear staining), screen run in duplicate; for norm: signal after plate normalization; for z: Z-test against negative controls (DMSO), single dose 5 uM.

Values joined by “and” are separate entries in the source; they are usually repeats but may differ in a detail not shown here. Identical values can stand only once. Counter-ions that a name gives are not always drawn.

The record followed here is patent publication US20200325543A1, “DIAGNOSTIC METHOD” (TOLREMO THERAPEUTICS AG, priority 2017, published 2020).

In the case of `CC(=O)O[C@H]1C[C@H](O[C@H]2[C@@H](O)C[C@H](O[C@H]3[C@@H](O)C[C@H](O[C@H]4CC[C@@]5(C)[C@H](CC[C@@H]6[C@@H]5C[C@@H](O)[C@]5(C)[C@@H](C7=CC(=O)OC7)CC[C@]65O)C4)O[C@@H]3C)O[C@@H]2C)O[C@H](C)[C@H]1O[C@@H]1O[C@H](CO)[C@@H](O)[C@H](O)[C@H]1O` [LANATOSIDE C], the cor. loess was 1.074 and 1.059; the raw is 0.9723 and 0.963; the norm was 0.4949.
Turning to `CC(=O)OCC(=O)[C@@]12OC3(CCCC3)O[C@@H]1C[C@H]1[C@@H]3CCC4=CC(=O)C=C[C@]4(C)[C@@]3(F)[C@@H](O)C[C@@]12C` [AMCINONIDE], the cor. loess was determined as 0.491, the raw was determined as 0.9761, the norm was 0.5647 and the z is recorded as 6.68.
Take `CCNC1(C(N)=O)CCN(c2ncnc3c2nc(-c2ccccc2Cl)n3-c2ccc(Cl)cc2)CC1` [Otenabant (CP-945598) HCl]: the cor. loess is on record as 1.069, the raw was 0.9665, the norm is on record as 0.8357 and the z stood at 4.116.
Consider `C[C@]12CCC(=O)C(O)=C1CC[C@@H]1[C@@H]2CC[C@]2(C)C(=O)CC[C@@H]12` [FORMESTANE], for which the cor. loess is reported as 0.4179, the raw is listed as 0.98, the norm was 0.3818 and the z was 4.633.
Consider `COC(=O)Nc1nc2ccc(Sc3ccccc3)cc2[nH]1` [FENBENDAZOLE], for which the cor. loess was determined as 0.4709, the raw is reported as 0.9808, the norm was 0.4377 and the z came out at 4.041.
With `CC[C@@H](C(=O)[C@@H](C)[C@@H](O)[C@H](C)[C@@H]1O[C@@H]([C@@H](CC)C(=O)O)CC[C@@H]1C)[C@H]1O[C@]2(C=C[C@@H](O)[C@]3(CC[C@@](C)([C@H]4CC[C@](O)(CC)[C@H](C)O4)O3)O2)[C@H](C)C[C@@H]1C` [SALINOMYCIN, SODIUM], the cor. loess is recorded as 0.802, the raw is given as 0.9671, the norm is given as 0.8129 and the z is 8.891.
The like results for `CN(C)c1ccc(C(=C2C=CC(=[N+](C)C)C=C2)c2ccc(N(C)C)cc2)cc1` [GENTIAN VIOLET] were, in that order, 1.077, 0.9601, 1.09 and 8.875.
For `Cc1cn(-c2cc(NC(=O)c3ccc(C)c(Nc4nccc(-c5cnccn5)n4)c3)cc(C(F)(F)F)c2)cn1` [Radotinib], the cor. loess came to 0.7186, the raw stood at 0.9713, the norm was 0.7194 and the z was found to be 7.683.
For `CN1C[C@H](CNC(=O)OCc2ccccc2)C[C@@H]2c3cccc4c3c(cn4C)C[C@H]21` [METERGOUNE], the cor. loess stood at 0.4209, the raw was 0.9793, the norm is recorded as 0.4023 and the z came out at 4.666.
`CC(=O)OCC(=O)[C@@]1(O)CC[C@H]2[C@@H]3CCC4=CC(=O)CC[C@]4(C)[C@@]3(F)[C@@H](O)C[C@@]21C` [FLUDROCORTISONE ACETATE]: the cor. loess is given as 0.4578, the raw stood at 0.977, the norm came to 0.5063 and the z is recorded as 3.773.
Turning to `C[C@H]1[C@@H](O)O[C@@H]2O[C@@]3(C)CC[C@H]4[C@H](C)CC[C@@H]1[C@@]24OO3` [ARTENIMOL], the cor. loess turned out to be 0.4829, the raw is 0.978, the norm is recorded as 0.4488 and the z came out at 5.354.
Take `COC(=O)c1ccc2c(c1)NC(=O)/C2=C(\Nc1ccc(N(C)C(=O)CN2CCN(C)CC2)cc1)c1ccccc1` [Nintedanib (BIBF 1120), Nintedanib]: the cor. loess turned out to be 0.5485, the raw is 0.9744, the norm was 0.6171 and the z is listed as 4.28.
On the same counts, the results for `C[C@@H]1C[C@H]2[C@@H]3CCC4=CC(=O)C=C[C@]4(C)[C@@]3(F)[C@@H](O)C[C@]2(C)[C@@]1(O)C(=O)COP(=O)(O)O` [DEXAMETHASONE SODIUM PHOSPHATE] are 0.5299, 0.9748, 0.5817 and 4.367.
With `CC(=O)OCC(=O)[C@@]12OC(C)(C)O[C@@H]1C[C@H]1[C@@H]3C[C@H](F)C4=CC(=O)C=C[C@]4(C)[C@@]3(F)[C@@H](O)C[C@@]12C` [FLUOCINONIDE], the cor. loess is 0.4293, the raw is recorded as 0.9797, the norm turned out to be 0.4123 and the z turned out to be 3.538.
On to `Cc1c(OCC(F)(F)F)ccnc1C[S+]([O-])c1nc2ccccc2[nH]1` (stereo not shown) [LANSOPRAZOLE], for which the cor. loess stood at 0.2732, the raw is recorded as 0.9819, the norm amounted to 0.3712 and the z stood at 3.717.
In the case of `CCCOc1ccc2nc(NC(=O)OC)[nH]c2c1` [OXIBENDAZOLE], the cor. loess is reported as 0.4781, the raw stood at 0.9763, the norm is given as 0.5578 and the z worked out at 6.505.
In the case of `CC(C)(C)c1ccc(C(O)CCCN2CCC(C(O)(c3ccccc3)c3ccccc3)CC2)cc1` (stereo not shown) [TERFENADINE], the cor. loess is on record as 0.2601, the norm was determined as 0.5459 and the z was determined as 3.539.
As to `Cc1ccc(C(=O)Nc2ccc(CN3CCN(C)CC3)c(C(F)(F)F)c2)cc1C#Cc1cnc2cccnn12` [Ponatinib (AP24534), Ponatinib], the cor. loess was 0.6841, the raw stood at 0.9701, the norm was found to be 0.7518 and the z is 5.338.
The like results for IVERMECTIN were, in that order, 0.6358, 0.9726, 0.6393 and 3.761.
`CC(=O)N[C@@H](CC(C)C)C(=O)O` [ACETYL-L-LEUCINE]: the cor. loess is 0.5782, the raw came to 0.9737, the norm is reported as 0.5922 and the z worked out at 6.41.
With `C[C@H]1O[C@@H](O[C@H]2[C@@H](O)C[C@H](O[C@H]3[C@@H](O)C[C@H](O[C@H]4CC[C@@]5(C)[C@H](CC[C@@H]6[C@@H]5C[C@@H](O)[C@]5(C)[C@@H](C7=CC(=O)OC7)CC[C@]65O)C4)O[C@@H]3C)O[C@@H]2C)C[C@H](O)[C@@H]1O` [DIGOXIN], the cor. loess is on record as 1.623, the raw was 0.9433, the norm was determined as 1.668 and the z amounted to 13.38.
Turning to `COc1ccc2cc1Oc1ccc(cc1)C[C@H]1c3cc(c(OC)cc3CCN1C)Oc1c(OC)c(OC)cc3c1[C@H](C2)N(C)CC3` [Tetrandrine], the cor. loess is on record as 1.018, the raw was determined as 0.9619, the norm was 1.018 and the z is on record as 7.2.
Consider `CO[C@H]1/C=C/O[C@@]2(C)Oc3c(C)c(O)c4c(O)c(c(/C=N/N5CCN(C)CC5)c(O)c4c3C2=O)NC(=O)/C(C)=C\C=C\[C@H](C)[C@H](O)[C@@H](C)[C@@H](O)[C@@H](C)[C@H](OC(C)=O)[C@@H]1C` [RIFAMPIN], for which the cor. loess is 0.4025, the raw was determined as 0.9792, the norm turned out to be 0.4925 and the z is on record as 3.454.
Turning to `Cc1cc2nc3ccc(N(C)C)cc3[s+]c2cc1N` [TOLONIUM CHLORIDE], the cor. loess came out at 0.7082, the raw worked out at 0.971, the norm is 0.6829 and the z is 7.851.
For `C[C@H]1[C@H](OC(=O)CCC(=O)O)O[C@@H]2O[C@@]3(C)CC[C@H]4[C@H](C)CC[C@@H]1[C@@]24OO3` [ARTESUNATE], the cor. loess is on record as 0.3246, the raw is recorded as 0.9835, the norm is reported as 0.3139 and the z was found to be 3.471.
The like results for `Cc1cc(C(C)(C)CC(C)(C)C)ccc1OCCOCC[N+](C)(C)Cc1ccccc1.[Cl-]` [METHYLBENZETHONIUM CHLORIDE] were, in that order, 0.2976, 0.9826, 0.3484 and 4.049.
Consider `COc1ccc(/C=C\c2cc(OC)c(OC)c(OC)c2)cc1OP(=O)([O-])[O-].[Na+].[Na+]` [Fosbretabulin (Combretastatin A4 Phosphate (CA4P)) Disodium], for which the cor. loess was found to be 0.3981, the raw is reported as 0.9814, the norm is 0.3844 and the z is reported as 4.256.
On to `C[C@@H]1O[C@@H](O[C@@H]2C=C3CC[C@@H]4[C@H](CC[C@]5(C)[C@@H](c6ccc(=O)oc6)CC[C@]45O)[C@@]3(C)CC2)[C@H](O)[C@H](O)[C@H]1O` [PROSCILLARIDIN A], for which the cor. loess is given as 0.5083, the raw is on record as 0.9787, the norm was found to be 0.4294 and the z came out at 3.007.
The like results for `CCC(=O)O[C@]1(C(=O)SCF)[C@H](C)C[C@H]2[C@@H]3C[C@H](F)C4=CC(=O)C=C[C@]4(C)[C@@]3(F)[C@@H](O)C[C@@]21C` [FLUTICASONE PROPIONATE] were, in that order, 0.6875, 0.9704, 0.713 and 4.067.
On the same counts, the results for `C[C@@H]1C[C@@H]([C@H](O)CC2CC(=O)NC(=O)C2)C(=O)[C@@H](C)C1` [CYCLOHEXIMIDE] are 0.6971, 0.9738, 0.6756 and 5.982.
